Activity calls are given as the source filed them. No cut-off for these calls is given here.
Key:
MDA-MB-436 [1] = test: Antiproliferative activity against human BRCA1 -/- MDA-MB-436 cells assessed as reduction in cell viability incubated for 5 to 10 days by MTT assay; type: functional, cell-based
CAPAN-1 = test: Antiproliferative activity against human BRCA2 -/- CAPAN-1 cells assessed as reduction in cell viability incubated for 5 to 10 days by MTT assay; type: functional, cell-based
MDA-MB-468 = test: Antiproliferative activity against human PTEN -/- MDA-MB-468 cells assessed as reduction in cell viability incubated for 5 to 10 days by MTT assay; type: functional, cell-based
MDA-MB-231 [2] = test: Antiproliferative activity against wild type human MDA-MB-231 cells assessed as reduction in cell viability incubated for 5 to 10 days by MTT assay; type: functional, cell-based
[3] = target: DDB1- and CUL4-associated factor 16/Poly [ADP-ribose] polymerase 2 (Homo sapiens, UniProt Q9UGN5+Q9NXF7); test: Protac activity at DCAF16 E3 ligase/PARP2 in human MDA-MB-231 cells assessed as induction of PARP2 degradation at 1 uM measured after 24 hrs by Western blot analysis; type: cell-based
MDA-MB-436 [4] = test: Induction of cell cycle arrest in human (BRAC1-/-) MDA-MB-436 cells assessed as accumulation at G2/M phase measured after 48 hrs by flow cytometry analysis; type: functional, cell-based; conditions: dose 0.312-2.5 µM, DDE = dose-dependent effect
MDA-MB-231 [5] = test: Induction of cell cycle arrest in human MDA-MB-231 cells assessed as accumulation at G2/M phase measured after 24 hrs by flow cytometry analysis; type: functional, cell-based; conditions: dose 0.156-1.25 µM, DDE = dose-dependent effect
MDA-MB-231 [6] = test: In vivo antitumor activity against human MDA-MB-231 cells xenografted BALB/c mouse assessed as tumor growth inhibition at 100 mg/kg, IG measured after 21 days; type: functional; conditions: MDA-MB-231, po, 504 h, time 21 day, read-out: TGI

DDB1- and CUL4-associated factor 16/Poly [ADP-ribose] polymerase 2, sequence (Q9NXF7 whole entry, looked up): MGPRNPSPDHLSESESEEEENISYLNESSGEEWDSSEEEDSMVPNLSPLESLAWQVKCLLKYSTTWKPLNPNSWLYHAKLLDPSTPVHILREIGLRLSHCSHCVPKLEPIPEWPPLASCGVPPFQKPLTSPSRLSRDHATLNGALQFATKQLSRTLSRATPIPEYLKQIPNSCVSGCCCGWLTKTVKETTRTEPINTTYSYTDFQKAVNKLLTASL
DDB1- and CUL4-associated factor 16/Poly [ADP-ribose] polymerase 2, sequence (Q9UGN5 whole entry, looked up): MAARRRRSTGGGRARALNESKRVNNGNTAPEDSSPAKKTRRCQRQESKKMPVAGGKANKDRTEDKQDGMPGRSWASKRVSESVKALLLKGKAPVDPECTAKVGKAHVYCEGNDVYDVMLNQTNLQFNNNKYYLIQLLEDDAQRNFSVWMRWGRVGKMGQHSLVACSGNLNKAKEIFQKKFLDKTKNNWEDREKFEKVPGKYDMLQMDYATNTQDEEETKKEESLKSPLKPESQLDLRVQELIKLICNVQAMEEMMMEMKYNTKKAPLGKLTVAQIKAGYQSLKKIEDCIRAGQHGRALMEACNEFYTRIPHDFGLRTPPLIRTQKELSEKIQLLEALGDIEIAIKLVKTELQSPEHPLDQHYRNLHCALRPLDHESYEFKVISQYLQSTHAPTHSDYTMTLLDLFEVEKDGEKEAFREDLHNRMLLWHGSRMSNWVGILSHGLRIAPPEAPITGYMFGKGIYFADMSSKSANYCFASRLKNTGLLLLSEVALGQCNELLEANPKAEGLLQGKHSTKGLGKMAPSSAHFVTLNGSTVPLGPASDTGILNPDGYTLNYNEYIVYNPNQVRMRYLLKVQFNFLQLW

Row | SMILES | IC50 (MDA-MB-436 [1]) [nM] | IC50 (MDA-MB-468) [nM] | IC50 (MDA-MB-231 [2]) [nM] | Activity [3] | IC50 (CAPAN-1) [nM] | Activity (MDA-MB-436 [4]) | Activity (MDA-MB-231 [5]) | inhibition in vivo at 100 mg/kg (MDA-MB-231 [6]) [%]
1 | O=C(CCC(=O)N1CCN(C(=O)c2cc(Cc3n[nH]c(=O)c4ccccc34)ccc2F)CC1)NCCCCCNC(=O)COc1ccc2c(c1)CCCN2C(=O)CCl | 290 | 1220 | 2420 | Active | 890 | – | – | –
2 | O=C(COc1ccc2c(c1)CCCN2C(=O)CCl)NCCOCCOCCOCCOCCNC(=O)CN1CCN(C(=O)c2cc(Cc3n[nH]c(=O)c4ccccc34)ccc2F)CC1 | 5020 | > 20000 | > 20000 | – | 7040 | – | – | –
3 | O=C(CCC(=O)N1CCN(C(=O)c2cc(Cc3n[nH]c(=O)c4ccccc34)ccc2F)CC1)NCCOCCOCCOCCOCCNC(=O)COc1ccc2c(c1)CCCN2C(=O)CCl | 780 | 7430 | 11000 | – | 1950 | – | – | –
4 | O=C(CCC(=O)N1CCN(C(=O)c2cc(Cc3n[nH]c(=O)c4ccccc34)ccc2F)CC1)NCCOCCNC(=O)COc1ccc2c(c1)CCCN2C(=O)CCl | 1480 | 6010 | 8270 | – | 2830 | – | – | –
5 | O=C(CCC(=O)N1CCN(C(=O)c2cc(Cc3n[nH]c(=O)c4ccccc34)ccc2F)CC1)NCCCNC(=O)COc1ccc2c(c1)CCCN2C(=O)CCl | 1190 | 5900 | 7190 | Active | 1870 | – | – | –
6 | O=C(COc1ccc2c(c1)CCCN2C(=O)CCl)NCCNC(=O)CN1CCN(C(=O)c2cc(Cc3n[nH]c(=O)c4ccccc34)ccc2F)CC1 | 1690 | 13400 | > 20000 | – | 3300 | – | – | –
7 | O=C(COc1ccc2c(c1)CCCN2C(=O)CCl)NCCC(=O)N1CCN(C(=O)c2cc(Cc3n[nH]c(=O)c4ccccc34)ccc2F)CC1 | 660 | > 20000 | > 20000 | – | 900 | – | – | –
8 | CCC(=O)N1CCCc2cc(OCC(=O)NCCCCCCCCCCC(=O)N3CCN(C(=O)c4cc(Cc5n[nH]c(=O)c6ccccc56)ccc4F)CC3)ccc21 | 43 | 2230 | 3100 | – | 87 | – | – | –
9 | O=C(CCC(=O)N1CCN(C(=O)c2cc(Cc3n[nH]c(=O)c4ccccc34)ccc2F)CC1)NCCCCCCNC(=O)COc1ccc2c(c1)CCCN2C(=O)CCl | 350 | 3910 | 5590 | Active | 990 | – | – | –
10 | O=C(c1cc(Cc2n[nH]c(=O)c3ccccc23)ccc1F)N1CCN(C(=O)C2CC2)CC1 [OLAPARIB] | – | – | – | – | – | Dde | Dde | 57.8
11 | O=C(COc1ccc2c(c1)CCCN2C(=O)CCl)NCCOCCOCCNC(=O)CN1CCN(C(=O)c2cc(Cc3n[nH]c(=O)c4ccccc34)ccc2F)CC1 | 3460 | > 20000 | > 20000 | – | 7630 | – | – | –
12 | O=C(COc1ccc2c(c1)CCCN2C(=O)CCl)NCCOCCOCCOCCNC(=O)CN1CCN(C(=O)c2cc(Cc3n[nH]c(=O)c4ccccc34)ccc2F)CC1 | 1740 | > 20000 | > 20000 | – | 3490 | – | – | –
13 | O=C(CCC(=O)N1CCN(C(=O)c2cc(Cc3n[nH]c(=O)c4ccccc34)ccc2F)CC1)NCCOCCOCCOCCNC(=O)COc1ccc2c(c1)CCCN2C(=O)CCl | 1750 | 6370 | 9710 | – | 1600 | – | – | –
14 | O=C(CCC(=O)N1CCN(C(=O)c2cc(Cc3n[nH]c(=O)c4ccccc34)ccc2F)CC1)NCCCCCCCNC(=O)COc1ccc2c(c1)CCCN2C(=O)CCl | 660 | 5700 | 6210 | Active | 1690 | – | – | –
15 | O=C(COc1ccc2c(c1)CCCN2C(=O)CCl)NCCOCCOCCOCCn1cc(CCCCC(=O)N2CCN(C(=O)c3cc(Cc4n[nH]c(=O)c5ccccc45)ccc3F)CC2)nn1 | 630 | 8170 | 6680 | – | 2230 | – | – | –
16 | O=C(COc1ccc2c(c1)CCCN2C(=O)CCl)NCCCCNC(=O)CN1CCN(C(=O)c2cc(Cc3n[nH]c(=O)c4ccccc34)ccc2F)CC1 | 1840 | 9100 | 11600 | – | 2690 | – | – | –
17 | O=C(CCC(=O)N1CCN(C(=O)c2cc(Cc3n[nH]c(=O)c4ccccc34)ccc2F)CC1)NCCNC(=O)COc1ccc2c(c1)CCCN2C(=O)CCl | 1480 | 6180 | 8440 | Active | 3160 | – | – | –

The remaining compounds from weak to strong by IC50 (MDA-MB-436 [1]), led by results:

Row | IC50 (MDA-MB-436 [1]) [nM] | IC50 (MDA-MB-468) [nM] | IC50 (MDA-MB-231 [2]) [nM] | Activity [3] | SMILES | IC50 (CAPAN-1) [nM] | Activity (MDA-MB-436 [4]) | Activity (MDA-MB-231 [5]) | inhibition in vivo at 100 mg/kg (MDA-MB-231 [6]) [%]
18 | 2890 | > 20000 | > 20000 | – | O=C(COc1ccc2c(c1)CCCN2C(=O)CCl)NCCOCCNC(=O)CN1CCN(C(=O)c2cc(Cc3n[nH]c(=O)c4ccccc34)ccc2F)CC1 | 5280 | – | – | –
19 | 2700 | > 20000 | > 20000 | – | O=C(COc1ccc2c(c1)CCCN2C(=O)CCl)NCCCNC(=O)CN1CCN(C(=O)c2cc(Cc3n[nH]c(=O)c4ccccc34)ccc2F)CC1 | 3370 | – | – | –
20 | 1960 | 11200 | 12300 | – | O=C(COc1ccc2c(c1)CCCN2C(=O)CCl)NCCCCCCNC(=O)CN1CCN(C(=O)c2cc(Cc3n[nH]c(=O)c4ccccc34)ccc2F)CC1 | 4360 | – | – | –
21 | 1190 | 9740 | 12900 | – | O=C(CCC(=O)N1CCN(C(=O)c2cc(Cc3n[nH]c(=O)c4ccccc34)ccc2F)CC1)NCCOCCOCCNC(=O)COc1ccc2c(c1)CCCN2C(=O)CCl | 1280 | – | – | –
22 | 820 | 7450 | 9740 | Active | NC(=O)n1nc(Cc2ccc(F)c(C(=O)N3CCN(C(=O)CCC(=O)NCCCCNC(=O)COc4ccc5c(c4)CCCN5C(=O)CCl)CC3)c2)c2ccccc2c1=O | 1960 | – | – | –
23 | 570 | 7240 | > 20000 | – | O=C(COc1ccc2c(c1)CCCN2C(=O)CCl)NCCCCC(=O)N1CCN(C(=O)c2cc(Cc3n[nH]c(=O)c4ccccc34)ccc2F)CC1 | 790 | – | – | –
24 | 490 | > 20000 | > 20000 | – | O=C(COc1ccc2c(c1)CCCN2C(=O)CCl)NCCCC(=O)N1CCN(C(=O)c2cc(Cc3n[nH]c(=O)c4ccccc34)ccc2F)CC1 | 840 | – | – | –
25 | 240 | 4680 | 5310 | – | O=C(COc1ccc2c(c1)CCCN2C(=O)CCl)NCCCCCC(=O)N1CCN(C(=O)c2cc(Cc3n[nH]c(=O)c4ccccc34)ccc2F)CC1 | 390 | – | – | –
26 | 110 | 2110 | 4230 | Active | O=C(COc1ccc2c(c1)CCCN2C(=O)CCl)NCCCCCCCC(=O)N1CCN(C(=O)c2cc(Cc3n[nH]c(=O)c4ccccc34)ccc2F)CC1 | 120 | – | – | –
27 | 77 | 1700 | 2690 | Active | O=C(COc1ccc2c(c1)CCCN2C(=O)CCl)NCCCCCCCCC(=O)N1CCN(C(=O)c2cc(Cc3n[nH]c(=O)c4ccccc34)ccc2F)CC1 | 150 | – | – | –
28 | 55 | 5850 | 3510 | – | O=C(COc1ccc2c(c1)CCCN2C(=O)CCl)NCC(=O)N1CCN(C(=O)c2cc(Cc3n[nH]c(=O)c4ccccc34)ccc2F)CC1 | 610 | – | – | –
29 | 25 | 720 | 810 | Active | O=C(COc1ccc2c(c1)CCCN2C(=O)CCl)NCCCCCCCCCCC(=O)N1CCN(C(=O)c2cc(Cc3n[nH]c(=O)c4ccccc34)ccc2F)CC1 | 68 | – | – | –

Reference: ChEMBL document CHEMBL5154873, “Selective degradation of PARP2 by PROTACs via recruiting DCAF16 for triple-negative breast cancer” (Eur J Med Chem, 2022)
